Experimental data as given in US6242478A, “Five member ring sulfenate esters and thiosulfinate esters” (Wake Forest University, priority 1999, dated 2001).
Like-named read-outs stand apart in the source and are kept apart here.

How the values were obtained:
[1] = test system: NCp7 protein; details: cited from earlier work; for ejection of zinc from NCp7: in words; for TSQ NCp7 Assay: unit not given
[2] = test system: HIV-1ADA; details: fresh human monocyte/macrophage cultures, cited from earlier work; for EC50: HIV-1ADA; for activity against replication of monocytotropic HIV-1ADA: in words
[3] = test system: fresh human monocyte/macrophage cultures; details: toxicity; cited from earlier work
[4] = biological target: T1, NCp7 (Human immunodeficiency virus type 1 group M subtype B, UniProt P04591); details: DFT calculation (Maynard et al., 1998); cited from earlier work
T1 construct: HIV-1 nucleocapsid protein (NCp7)

[5] = test system: HIV-1RF; details: cited from earlier work; for EC50: CEM-SS cells, HIV-1RF, read-out: XTT assay EC50; for activity against HIV-1 in XTT-based cytoprotection assay: in words
[6] = test system: CEM-SS cells; details: toxicity, CEM-SS cells; read-out: XTT assay IC50; cited from earlier work
[7] = test system: CEM-SS cells; assay: XTT assay, toxicity (IC50) in CEM-SS cells; assay type: cell-based; details: for IC50: Homo sapiens, CEM-SS, Table 3, read-out: XTT Anti-HIV-1 Assay IC50
From the text: (§1) Both the XTT and monocyte/macrophage assays were used because infection of monocyte/macrophage cultures is thought to resemble infection of the nonproliferating pool of cells in vivo, while the parameters for the CEM-SS cells (XTT assay) are thought to reflect more closely the parameters for highly proliferating cells such as bone marrow and intestinal cells. The CEM-SS cell (XTT) assay is a more sensitive indicator of toxicity and all compounds disclosed herein have been screened in this assay.

[8] = test system: HIV-1RF; assay: XTT cytoprotection assay, anti-HIV-1 activity (EC50) in CEM-SS cells; assay type: cell-based
From the text: as §1
Based on these preliminary screens, it is contemplated that an aromatic or large substituent at R1 (compare entries 1 & 4, 9 & 10) and a small substituent at R2 (compare entries 1, 2, & 3; 7, 8, & 9) may be best for anti-HIV-1 activity. Sulfur heterocycles containing more than 6 atoms don't appear to be active (entries 13 & 14). […] As observed for 8 previously (Rice et al., 1997), anti-HIV-1 activity and toxicity of 53a went down when treated with 2 equivalents of GSH (entry 6).

[9] = biological target: T2, NCp7 (Human immunodeficiency virus type 1 group M subtype B, UniProt P12493); assay: NCp7 Trp37 fluorescence decrease assay; assay type: biochemical, HIV-1; details: for NCp7 Trp37 Assay, % Decrease RFU/30 min, without GSH: 50 μM
T2 construct: HIV-1 nucleocapsid protein (NCp7)

[10] = test system: Ferritin H mRNA; assay: Ferritin H mRNA induction, Northern blot; assay type: cell-based, mouse; details: 80 μM, 24 hours
Procedure: (§2) BNL.CL2 cells were treated with Oltipraz, compound 121 described above, and compound 123 described above. All compounds were applied to the cells at 100 micromolar concentration for 24 hours.
(§3) Cells were exposed to compounds at a final concentration of 80 μM for 24 hours. RNA was isolated and analyzed by Northern blotting for the expression of the indicated genes. Control cells were incubated with vehicle alone (0.4% DMSO).
(§4) Northern blot: Treatment of BNL.CL2 cells with 100 μM Oltipraz, ALH-556, and ALH-562, ALH-561, ED 13.4, ED 14.6, DCF 070, ALH-490
(§5) BNL.CL2 cells (normal mouse embryonic liver cell line) were plated at ~3×10^5 cells/ml, grown for 16-24 hours, and treated with 0 μM and 100 μM Oltipraz, ALH-556 (121), and ALH-562 (123) for 24 hours. All three compounds were dissolved in DMSO and the final DMSO concentration present in all treatment conditions was 0.2%. BNL.CL2 cells were harvested by trypsinization and total RNA was isolated using the Trizol reagent (Gibco BRL) according to the manufacturer's procedures. 15 μg of RNA were run on a 1.1% agarose/6.6% formaldehyde gel and transferred overnight onto nitrocellulose membranes by capillary transfer using 20×SSC as transfer buffer. Subsequent to RNA transfer, the nitrocellulose membrane was baked at 80° C. for 2 hours. RNA was analyzed using a radiolabeled mouse ferritin H and human GST-α c-DNA. A human β-actin probe was used as an internal standard. The c-DNA probes were labeled with [α^32 P]dCTP by a random prime labeling. Hybridization of the c-DNA probes to the nitrocellulose membrane was performed at 68° C. for 60 minutes using the Quick-Hyb solution (Stratagene). Membranes were subjected to phosphoimager analysis after hybridization.

[11] = test system: DT-diaphorase (NQO1) mRNA; assay: NQO1 mRNA induction, Northern blot; assay type: cell-based, mouse; details: 80 μM, 24 hours
Procedure: as §2, §3, §4, §5

[12] = test system: GST alpha mRNA in BNL.CL2 cells; assay: GST alpha mRNA induction, Northern blot; assay type: cell-based, mouse; details: for GST α induction (mRNA): 80 μM, Northern blot; for GST α induction (mRNA) / activation at 100 µM: 24 hours; for activation at 100 µM: Mus musculus, BNL CL.2, BNL.CL2 cells, 100 micromolar, read-out: increase in GST alpha mRNA levels; for inducing activity (GST, NQO1 and Ferritin H): in words
Procedure: as §2, §3, §4, §5

[13] = test system: GST; details: rats; cited from earlier work
[14] = test system: GST; details: mice; cited from earlier work
[15] = biological target: T2, NCp7; details: 50 μM, reference compounds; cited from earlier work
[16] = test system: GST alpha mRNA in BNL.CL2 cells; assay: GST alpha mRNA induction, Northern blot; assay type: cell-based, mouse; details: 48 and 72h post treatment, in words
[17] = test system: glutathione-S-transferase (GST); details: cited from earlier work
[18] = Human immunodeficiency virus 1, CEM-SS, Table 3, read-out: XTT Anti-HIV-1 Assay EC50
[19] = Human immunodeficiency virus 1, CEM-SS, read-out: Maximum cytoprotection

O=S1(=O)C[C@@H](O)[C@H](O)CS1 (relative stereo) [compound 9]
ejection of zinc from NCp7 [1]: promoted ejection of zinc | TSQ NCp7 Assay [1]: 20 | EC50 [2]: 9.1 µM | activity against replication of monocytotropic HIV-1ADA [2]: active | IC50 [3]: > 100 µM | ratio of electronegativity to hardness (.chi.^2 /.eta.) [4]: 0.2260 | EC50 [5]: 13 µM | activity against HIV-1 in XTT-based cytoprotection assay [5]: active | IC50 [6]: 135 µM

NS(=O)(=O)c1ccc(NC(=O)c2ccccc2SSc2ccccc2C(=O)Nc2ccc(S(N)(=O)=O)cc2)cc1 [3, R'=C(O)NH-phenyl-SO2 NH2]
ratio of electronegativity to hardness (.chi.^2 /.eta.) [4]: 0.2935

CC(=O)NS(=O)(=O)c1ccc(NC(=O)c2ccccc2SSc2ccccc2C(=O)Nc2ccc(S(=O)(=O)NC(C)=O)cc2)cc1 [3, R'=C(O)NH-phenyl-SO2 NHC(O)CH3]
ratio of electronegativity to hardness (.chi.^2 /.eta.) [4]: 0.3098

COC(=O)C1=C(c2ccccc2)[S+]([O-])SC1 (centres unmarked) [53a]
toxicity with GSH ([7]; 2 equivalents of GSH, in words): went down | IC50 [7]: 18 µM | anti-HIV-1 activity with GSH ([8]; 2 equivalents of GSH, in words): went down | EC50 ([8]; Human immunodeficiency virus 1, CEM-SS, + GSH, 2 equivalents, read-out: XTT Anti-HIV-1 Assay EC50 with GSH): 17.3 µM | EC50 [8, 18]: 6 µM | EC50 relative to the best dithiane (8, NSC 624151) ([8]; in words): below that of the best dithiane | cytoprotection / anti-HIV-1 activity ([8]; in words): possess anti-HIV-1 activity | NCp7 Trp37 Assay, % Decrease RFU/30 min, with GSH ([9]; 50 μM with GSH): 16.7 % Decrease RFU/30 min | NCp7 Trp37 Assay, % Decrease RFU/30 min, without GSH [9]: 13.5 % Decrease RFU/30 min | zinc ejecting ability with GSH ([9]; GSH, in words): little effected by GSH

CCOC(=O)C1=C(c2ccccc2)[S+]([O-])SC1 (centres unmarked) [53b]
IC50 [7]: 45.7 µM | Emax at 10 µM [8, 19]: 31.6% | NCp7 Trp37 Assay, % Decrease RFU/30 min, without GSH [9]: 6.5 % Decrease RFU/30 min

CC(C)OC(=O)C1=C(c2ccccc2)[S+]([O-])SC1 (centres unmarked) [53c]
IC50 [7]: 15.2 µM | Emax at 10 µM [8, 19]: 43.3% | NCp7 Trp37 Assay, % Decrease RFU/30 min, without GSH [9]: 17.1 % Decrease RFU/30 min

COC(=O)C1=C(C)[S+]([O-])SC1 (centres unmarked) [53d]
IC50 [7]: 16.9 µM | Emax at 10 µM [8, 19]: 41.4% | NCp7 Trp37 Assay, % Decrease RFU/30 min, without GSH [9]: 14.3 % Decrease RFU/30 min

CC1=C(C(=O)OC(C)C)CS[S+]1[O-] (centres unmarked) [53e]
IC50 [7]: 18.4 µM | Emax at 10 µM [8, 19]: 40% | NCp7 Trp37 Assay, % Decrease RFU/30 min, without GSH [9]: 10.4 % Decrease RFU/30 min

CC1=C(c2ccccc2)S(=O)OC1 (centres unmarked) [53f]
IC50 [7]: 16.9 µM | EC50 [8, 18]: 5.9 µM | EC50 relative to the best dithiane (8, NSC 624151) ([8]; in words): below that of the best dithiane | cytoprotection / anti-HIV-1 activity ([8]; in words): possess anti-HIV-1 activity | NCp7 Trp37 Assay, % Decrease RFU/30 min, without GSH [9]: 0 % Decrease RFU/30 min

COC(=O)C1=C(c2ccccc2)S(=O)OC1 (centres unmarked) [53h]
IC50 [7]: 22.5 µM | Emax at 10 µM [8, 19]: 29% | NCp7 Trp37 Assay, % Decrease RFU/30 min, without GSH [9]: 0 % Decrease RFU/30 min

CCOC(=O)C1=C(c2ccccc2)S(=O)OC1 (centres unmarked) [(8) 53g]
IC50 [7]: 213 µM | Emax at 100 µM ([8]; Human immunodeficiency virus 1, CEM-SS, @ 100 μM, read-out: Maximum cytoprotection): 12% | NCp7 Trp37 Assay, % Decrease RFU/30 min, without GSH [9]: 26 % Decrease RFU/30 min

COC(=O)C1=C(C)S(=O)OC1 (centres unmarked) [(10) 53g]
IC50 [7]: 5.3 µM | Emax at 3.2 µM ([8]; Human immunodeficiency virus 1, CEM-SS, @ 3.2 μM, read-out: Maximum cytoprotection): 32.6% | NCp7 Trp37 Assay, % Decrease RFU/30 min, without GSH [9]: 0.2 % Decrease RFU/30 min

O=S1(=O)OCC=C1c1ccccc1 [ALH-490]
Ferritin H induction (mRNA) [10]: + | NQO1 induction (mRNA) [11]: + | GST α induction (mRNA) [12]: +

COC(=O)C1=C(c2ccccc2)[S+]([O-])SC1 (centres unmarked) [DCF 070]
Ferritin H induction (mRNA) [10]: + | NQO1 induction (mRNA) [11]: + | GST α induction (mRNA) [12]: +

COC(=O)C1=C(C2=CCCCC2)[S+]([O-])SC1 (centres unmarked) [ED 13.4]
Ferritin H induction (mRNA) [10]: + | NQO1 induction (mRNA) [11]: + | GST α induction (mRNA) [12]: +

CC1=C(C2=CCCCC2)[S+]([O-])SC1 (centres unmarked) [ED 14.6]
Ferritin H induction (mRNA) [10]: + | NQO1 induction (mRNA) [11]: + | GST α induction (mRNA) [12]: +

NC(=O)c1cccc(N=O)c1 [NOBA, 3-nitrosobenzamide]
ejection of zinc from NCp7 [1]: reacted with the zinc fingers of NCp7 causing zinc ejection

C=CCS[S+]([O-])CC=C (centres unmarked) [allicin]
elevation of GST levels [13]: elevate levels of GST | elevation of GST levels [14]: elevate levels of GST

O=S1(=O)CC(CO)(CO)CS1 [compound 6]
ejection of zinc from NCp7 [1]: promoted ejection of zinc | activity against replication of monocytotropic HIV-1ADA [2]: active | EC50 [5]: 34 µM | activity against HIV-1 in XTT-based cytoprotection assay [5]: active | IC50 [6]: 200 µM

CC(=O)OCC1(COC(C)=O)CSS(=O)(=O)C1 [compound 7]
ejection of zinc from NCp7 [1]: promoted ejection of zinc | TSQ NCp7 Assay [1]: 18 | EC50 [2]: 21 µM | activity against replication of monocytotropic HIV-1ADA [2]: active | IC50 [3]: > 100 µM | EC50 [5]: 9.8 µM | activity against HIV-1 in XTT-based cytoprotection assay [5]: active | IC50 [6]: 30 µM | NCp7 Trp37 Assay, % Decrease RFU/30 min, without GSH [15]: 18 % Decrease RFU/30 min

COc1ccc(C2=C(C)COS2=O)cc1 (centres unmarked) [compound 121, 4-Methyl-5-(4-methoxy)phenyl-1,2-oxathiol-4-en-1-yl Oxide]
activation at 100 µM [12]: 300% | inducing activity (GST, NQO1 and Ferritin H) [12]: high levels of inducing activity

CC1=C(C2=CCCCC2)S(=O)OC1 (centres unmarked) [compound 123, 4-methyl-5-cyclohexenyl-1,2-oxathiol-4-en-1-yl oxide]
Ferritin H induction (mRNA) [10]: + | NQO1 induction (mRNA) [11]: + | time course of GST levels [16]: slight additional increases in GST levels | GST α induction (mRNA) [12]: + | activation at 100 µM [12]: 430% | inducing activity (GST, NQO1 and Ferritin H) [12]: high levels of inducing activity

N[C@@H](CCC(=O)N[C@@H](CS)C(=O)NCC(=O)O)C(=O)O [glutathione]
pKa of the thiol ([17]; bound to GST): ~ 6.5 | pKa of the thiol ([17]; without enzyme binding): 9.0

CC(C)(C)c1cc(O)ccc1O [t-BHQ]
Ferritin H induction (mRNA) [10]: + | NQO1 induction (mRNA) [11]: + | GST α induction (mRNA) [12]: +
